The target in experiment [1] is T1, Adrenergic receptor alpha-1 (Rattus norvegicus, UniProt P15823+P23944+P43140).
T1 sequence (P15823 whole entry): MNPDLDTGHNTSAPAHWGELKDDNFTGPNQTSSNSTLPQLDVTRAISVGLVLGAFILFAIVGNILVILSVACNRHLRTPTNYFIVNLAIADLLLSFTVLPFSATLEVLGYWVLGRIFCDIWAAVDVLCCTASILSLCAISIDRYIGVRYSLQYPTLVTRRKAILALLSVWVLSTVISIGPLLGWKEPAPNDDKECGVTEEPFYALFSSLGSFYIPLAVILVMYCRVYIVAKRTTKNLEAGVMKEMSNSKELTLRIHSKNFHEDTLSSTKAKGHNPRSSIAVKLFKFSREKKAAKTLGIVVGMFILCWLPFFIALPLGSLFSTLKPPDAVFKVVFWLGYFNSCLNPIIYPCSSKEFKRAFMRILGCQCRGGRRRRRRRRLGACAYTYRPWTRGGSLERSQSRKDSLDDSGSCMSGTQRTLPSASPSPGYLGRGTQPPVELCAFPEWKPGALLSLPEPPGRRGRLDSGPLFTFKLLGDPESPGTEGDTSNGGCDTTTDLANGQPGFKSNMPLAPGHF
T1 sequence (P23944 whole entry): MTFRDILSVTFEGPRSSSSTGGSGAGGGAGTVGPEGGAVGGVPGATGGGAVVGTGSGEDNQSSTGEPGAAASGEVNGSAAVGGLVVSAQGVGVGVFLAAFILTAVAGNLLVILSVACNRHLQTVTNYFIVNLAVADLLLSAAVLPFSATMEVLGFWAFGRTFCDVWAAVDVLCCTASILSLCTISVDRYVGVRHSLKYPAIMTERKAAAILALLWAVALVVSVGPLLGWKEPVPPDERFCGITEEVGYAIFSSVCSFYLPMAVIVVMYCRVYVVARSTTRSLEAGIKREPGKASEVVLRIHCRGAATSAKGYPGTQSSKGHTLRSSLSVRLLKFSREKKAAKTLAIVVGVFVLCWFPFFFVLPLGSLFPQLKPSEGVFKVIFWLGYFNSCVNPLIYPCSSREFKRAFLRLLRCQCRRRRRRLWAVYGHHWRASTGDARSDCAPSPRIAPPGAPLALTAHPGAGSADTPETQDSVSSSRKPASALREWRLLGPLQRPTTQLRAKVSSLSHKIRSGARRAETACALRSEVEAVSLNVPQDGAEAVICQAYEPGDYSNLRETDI
T1 sequence (P43140 whole entry): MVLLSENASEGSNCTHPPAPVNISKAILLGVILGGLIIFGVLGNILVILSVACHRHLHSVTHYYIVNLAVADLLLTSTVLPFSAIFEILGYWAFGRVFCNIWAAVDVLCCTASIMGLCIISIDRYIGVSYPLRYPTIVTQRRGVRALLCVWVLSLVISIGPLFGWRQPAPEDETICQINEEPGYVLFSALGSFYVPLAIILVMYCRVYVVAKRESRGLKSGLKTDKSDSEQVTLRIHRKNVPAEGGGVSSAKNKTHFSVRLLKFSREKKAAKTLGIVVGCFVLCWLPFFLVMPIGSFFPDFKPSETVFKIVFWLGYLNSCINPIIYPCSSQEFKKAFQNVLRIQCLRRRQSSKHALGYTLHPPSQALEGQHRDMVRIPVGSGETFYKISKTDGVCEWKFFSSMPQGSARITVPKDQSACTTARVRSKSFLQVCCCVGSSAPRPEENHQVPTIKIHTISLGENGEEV
Description: Ability to displace [3H]prazosin from postsynaptic alpha-1 adrenergic receptor of rat in vitro. Type of experiment: protein assay.

Experiment [2] relates to Rattus norvegicus. Put plainly: Antihypertensive activity on spontaneously hypertensive rats, when administered orally at a dose 30 mg/kg. As to conditions: route oral. It counts as functional.
The subject of experiment [3] is Rattus norvegicus. Put plainly: Antihypertensive activity on spontaneously hypertensive rats, when administered orally at a dose 15 mg/kg. Conditions: route oral. Type of experiment: functional.
Experiment [4] concerns Canis familiaris. Description: Heart rate after 4 hours of oral administration in renal hypertensive dogs at dose 0.5 mg/kg. Type of experiment: functional, Canis lupus familiaris.
Experiment [5] deals with Canis familiaris. Put plainly: Heart rate after 8 hours of oral administration in renal hypertensive dogs at dose 0.3 mg/kg. It counts as functional, Canis lupus familiaris.
Experiment [6] has as its system Canis familiaris. Put plainly: Peak effect after 2-4 hours systolic blood pressure after 7 days of oral administration in renal hypertensive dogs at dose 0.3 mg/kg. It counts as functional, Canis lupus familiaris, Artery.
Experiment [7] concerns Canis familiaris. Put plainly: Heart rate after 0 hours of oral administration in renal hypertensive dogs at dose 0.5 mg/kg. It counts as functional, Canis lupus familiaris.
In experiment [8] the test system is Canis familiaris. Description: Peak effect after 2-4 hours systolic blood pressure after 2 day of oral administration in renal hypertensive dogs at dose 0.3 mg/kg. It counts as functional, Canis lupus familiaris, Artery.
Experiment [9] relates to Canis familiaris. Put plainly: Systolic blood pressure after 2 hr of oral administration in renal hypertensive dogs at dose 0.5 mg/kg. Type of experiment: functional, Canis lupus familiaris.
Experiment [10] has as its system Canis familiaris. Description: Systolic blood pressure after 2 hours of oral administration in renal hypertensive dogs at dose 0.3 mg/kg. It counts as functional, Canis lupus familiaris.
Experiment [11] deals with Canis familiaris. Description: Systolic blood pressure after 0 hours of oral administration in renal hypertensive dogs at dose 0.1 mg/kg. Type of experiment: functional, Canis lupus familiaris.
Experiment [12] relates to Canis familiaris. Put plainly: Heart rate after 0 hours of oral administration in renal hypertensive dogs at dose 0.3 mg/kg. Type of experiment: functional, Canis lupus familiaris.
In experiment [13] the test system is Canis familiaris. Description: Systolic blood pressure after 6 hr of oral administration in renal hypertensive dogs at dose 0.5 mg/kg. It counts as functional, Canis lupus familiaris.
The test system of experiment [14] is Canis familiaris. Put plainly: Heart rate after 8 hours of oral administration in renal hypertensive dogs at dose 0.1 mg/kg. It counts as functional, Canis lupus familiaris.
Experiment [15] has as its system Canis familiaris. Put plainly: Systolic blood pressure after 8 hr of oral administration in renal hypertensive dogs at dose 0.1 mg/kg. Type of experiment: functional, Canis lupus familiaris.
The subject of experiment [16] is Canis familiaris. Description: Heart rate after 2 hours of oral administration in renal hypertensive dogs at dose 0.1 mg/kg. Type of experiment: functional, Canis lupus familiaris.
Experiment [17] deals with Canis familiaris. Put plainly: Heart rate after 8 hours of oral administration in renal hypertensive dogs at dose 0.5 mg/kg. It counts as functional, Canis lupus familiaris.
Experiment [18] has as its system Canis familiaris. Put plainly: Systolic blood pressure after 4 hr of oral administration in renal hypertensive dogs at dose 0.5 mg/kg. It counts as functional, Canis lupus familiaris.
The test system of experiment [19] is Canis familiaris. Put plainly: Systolic blood pressure after 8 hr of oral administration in renal hypertensive dogs at dose 0.5 mg/kg. It counts as functional, Canis lupus familiaris.
The subject of experiment [20] is Canis familiaris. Put plainly: Heart rate after 6 hours of oral administration in renal hypertensive dogs at dose 0.3 mg/kg. It counts as functional, Canis lupus familiaris.
Experiment [21] has as its system Canis familiaris. Put plainly: Heart rate after 4 hours of oral administration in renal hypertensive dogs at dose 0.1 mg/kg. It counts as functional, Canis lupus familiaris.
Experiment [22] concerns Canis familiaris. Put plainly: Peak effect after 2-4 hours systolic blood pressure after 3 days of oral administration in renal hypertensive dogs at dose 0.3 mg/kg. It counts as functional, Canis lupus familiaris, Artery.
Experiment [23] has as its system Canis familiaris. Description: Heart rate after 6 hours of oral administration in renal hypertensive dogs at dose 0.1 mg/kg. It counts as functional, Canis lupus familiaris.
Experiment [24] has as its system Canis familiaris. Put plainly: Systolic blood pressure after 2 hours of oral administration in renal hypertensive dogs at dose 0.1 mg/kg. Type of experiment: functional, Canis lupus familiaris.
The test system of experiment [25] is Canis familiaris. Put plainly: Systolic blood pressure after 6 hr of oral administration in renal hypertensive dogs at dose 0.1 mg/kg. It counts as functional, Canis lupus familiaris.
Experiment [26] relates to Canis familiaris. Description: Peak effect after 2-4 hours systolic blood pressure after 1 days of oral administration in renal hypertensive dogs at dose 0.3 mg/kg. Type of experiment: functional, Canis lupus familiaris, Artery.
Experiment [27] concerns Canis familiaris. Description: Systolic blood pressure after 0 hours of oral administration in renal hypertensive dogs at dose 0.3 mg/kg. It counts as functional, Canis lupus familiaris.
The test system of experiment [28] is Canis familiaris. Description: Systolic blood pressure after 6 hr of oral administration in renal hypertensive dogs at dose 0.3 mg/kg. It counts as functional, Canis lupus familiaris.
Experiment [29] has as its system Canis familiaris. Description: Systolic blood pressure after 4 hr of oral administration in renal hypertensive dogs at dose 0.3 mg/kg. It counts as functional, Canis lupus familiaris.
In experiment [30] the test system is Canis familiaris. Put plainly: Heart rate after 4 hours of oral administration in renal hypertensive dogs at dose 0.3 mg/kg. It counts as functional, Canis lupus familiaris.
In experiment [31] the test system is Canis familiaris. Description: Heart rate after 0 hours of oral administration in renal hypertensive dogs at dose 0.1 mg/kg. Type of experiment: functional, Canis lupus familiaris.
For experiment [32], the system named is Canis familiaris. Description: Heart rate after 2 hours of oral administration in renal hypertensive dogs at dose 0.5 mg/kg. It counts as functional, Canis lupus familiaris.
The subject of experiment [33] is Canis familiaris. Description: Systolic blood pressure after 4 hr of oral administration in renal hypertensive dogs at dose 0.1 mg/kg. It counts as functional, Canis lupus familiaris.
The test system of experiment [34] is Canis familiaris. Description: Heart rate after 2 hours of oral administration in renal hypertensive dogs at dose 0.3 mg/kg. It counts as functional, Canis lupus familiaris.
The subject of experiment [35] is Canis familiaris. Description: Systolic blood pressure after 8 hr of oral administration in renal hypertensive dogs at dose 0.3 mg/kg. Type of experiment: functional, Canis lupus familiaris.
The subject of experiment [36] is Canis familiaris. Description: Systolic blood pressure after 0 hours of oral administration in renal hypertensive dogs at dose 0.5 mg/kg. Type of experiment: functional, Canis lupus familiaris.
Experiment [37] concerns Canis familiaris. Put plainly: Heart rate after 6 hours of oral administration in renal hypertensive dogs at dose 0.5 mg/kg. Type of experiment: functional, Canis lupus familiaris.

As usually defined, the Ki is a dissociation constant, usually derived from enzyme kinetics or from competition with a known ligand.

Where “and” joins values, the source holds several entries; their conditions need not be identical. Equal entries are not always repeated.

In experiment [1], `CCn1nc(-c2ccc(F)cc2)c2c1CCN(C)C2.CS(=O)(=O)O` showed a Ki of 0.362 µM. Besides, the Delta p in experiment [2] was -37%.
`Cl.Clc1ccc(-c2[nH]nc3c2CNCC3)cc1` yielded a Ki in experiment [1] of 0.145 µM. In addition, the Delta p in experiment [3] is listed as 0%.
Consider `COc1cc2nc(N3CCN(C(=O)c4ccco4)CC3)nc(N)c2cc1OC` [PRAZOSIN], for which the Heart rate in [4] came out at 82%; in experiment [5], 100%; in experiment [7], 86 beats min-1; in [12], 110 beats min-1; in [14], 106%; in experiment [16] it was 92%. Besides, the Heart rate in experiment [17] is recorded as 82 beats min-1; in experiment [20] it was 90%; in experiment [21], 94%; in [23], 96%; in [30], 100%; in [31], 104 beats min-1. Also, the Heart rate in [32] was determined as 94 beats min-1; in experiment [34], 114%; in experiment [37], 78 beats min-1. Besides, the Blood pressure in [6] is 100%; in [8] it was 100% and 92%; in [9] it was 135 mmHg; in experiment [10] it was 182 mmHg; in experiment [11] it was 205 mmHg; in [13], 125 mmHg. Besides, the Blood pressure in [15] was 196 mmHg; in [18], 125 mmHg; in [19] it was 150 mmHg; in experiment [22], 96%; in experiment [24] it was 186 mmHg; in experiment [25] it was 193 mmHg. Moreover, the Blood pressure in experiment [26] was 96%; in experiment [27], 202 mmHg; in [28] it was 165 mmHg; in experiment [29], 160 mmHg; in [33] it was 180 mmHg; in experiment [35] it was 180 mmHg. In experiment [36], this compound came in with a Blood pressure of 190 mmHg.

For the origin of these results see ChEMBL document CHEMBL1122903, “Synthesis, in vitro [3H]prazosin displacement, and in vivo activity of 3-aryl-4,5,6,7-tetrahydropyrazolo[4,3-c]pyridines, a new class of antihypertensive agents” (J Med Chem, 1985).
